These results are taken from patent US20230405081A1, “PHARMACEUTICAL COMPOSITION COMPRISING A PEPTIDE AS ACTIVE INGREDIENT” (INTRACT PHARMA LIMITED, priority 2020, published 2023).

This data set is described as follows: in vitro. The conditions noted are these: human, real gastrointestinal fluid or homogenate; for remaining at 1 h, 1 mg/ml: pH 7, % Peptide remaining at 1 hours (T = 1 h). How it is done: A human colonic model based on a mixed faecal inoculum was used to mimic the luminal environment of the human large intestine. An anaerobic workstation (Electrotek 500TG™ workstation, Electrotek, West Yorkshire, UK) maintained at 37° C. and 70% relative air humidity was used to set up the model. The fecal material was transferred in the anaerobic workstation and diluted with freshly prepared basal medium to obtain 20% w/w slurry by homogenization. The basal media provides nutrients and growth factors to the microbiota allowing viability for up to 24 hours. The homogenized bacterial media was sieved through an open mesh fabric (SefarNitex™, pore size 350 μm) to remove any nonhomogeneous fibrous material. The pH was maintained at approximately 7 to mimic the colonic luminal pH of the human.
Desmopressin stock solution was prepared in HPLC water at 2 mg/ml without or with single L-amino acids, combinations of L-amino acids or di-peptides at 10 and/or 20 and/or 40 mM concentrations and added to […] human faecal slurry; […] Samples were withdrawn at appropriate time points and added to HPLC grade methanol in a ratio of 1:1. The samples were centrifuged at […] for 10 minutes at 4° C. and the supernatant was analysed by Reversed Phase-HPLC (RP-HPLC).
Sample analysis was performed using a high performance liquid chromatography (HPLC) system (Agilent Technologies, 1260 Infinity II Series™) equipped with a pump (model G7111A), autosampler (model G7129A) and a diode-array UV detector (model G7114A). A 150×4.6-mm, 5 μm, 100 Å (Phenomenex, UK) reversed phase chromatography column was used for sample separation using 0.1% TFA in water (A) and acetonitrile (B) as the mobile phase for elution, at a flow rate of 1 ml/min. The gradient was set up with 17% of B at 0-4 minutes, 30% of B at 20 minutes and 17% of B at 20.01-23 minutes. The analysis was operated at room temperature and UV detection wavelength was set at 220 nm. Each sample was run for 23 minutes to allow complete elution of the sample without overlapping matrix interferences.
Colon stability was assessed using the Human Colon model with the amount of intact desmopressin remaining at each time point assessed by RP-HPLC as described in the Methods section.
Colon stability was assessed using the Human Colon model with the amount of intact oxytocin, oxytocin with 1 D-amino acid and linear oxytocin remaining at each time point assessed by RP-HPLC as described in the Methods section.

What is called share remaining is what is left of the initial amount, in per cent.

Consider `NC(=O)CC[C@@H]1NC(=O)[C@H](Cc2ccccc2)NC(=O)[C@H](Cc2ccc(O)cc2)NC(=O)CCSSC[C@@H](C(=O)N2CCC[C@H]2C(=O)N[C@H](CCCN=C(N)N)C(=O)NCC(N)=O)NC(=O)[C@H](CC(N)=O)NC1=O` [Desmopressin], for which the “% Desmopressin remaining after 1 hours (T = 1 h)” value (1 h, 0.1 mg/ml, pH 7) is listed as 22.6 ± 2.7%. Also, the fraction remaining at 1 h, 0.1 mg/ml (pH 7, % Desmopressin remaining after 1 hours (T = 1 h)) amounted to 28.8 ± 1.2%.

In the case of `CC[C@H](C)[C@H](NC(=O)[C@H](Cc1ccc(O)cc1)NC(=O)[C@@H](N)CS)C(=O)N[C@@H](CCC(N)=O)C(=O)N[C@@H](CC(N)=O)C(=O)N[C@@H](CS)C(=O)N1CCC[C@H]1C(=O)N[C@H](CC(C)C)C(=O)NCC(N)=O` [Linear Oxytocin with 1 D-amino acid], the fraction remaining at 1 h, 1 mg/ml turned out to be 0%. The fraction remaining at 0.5 h, 1 mg/ml (pH 7, % Peptide remaining at 0.5 hours (T = 0.5 h)) was 0%.

Consider `CC[C@H](C)[C@@H]1NC(=O)[C@H](Cc2ccc(O)cc2)NC(=O)[C@@H](N)CSSC[C@@H](C(=O)N2CCC[C@H]2C(=O)N[C@@H](CC(C)C)C(=O)NCC(N)=O)NC(=O)[C@H](CC(N)=O)NC(=O)[C@H](CCC(N)=O)NC1=O` [Oxytocin], for which the amount remaining at 1 h, 1 mg/ml was determined as 6.6 ± 0.25%.
